This test deals with BDF1 mice, B16 melanoma ip, median survival T/C. The test can be described thus: NCI In Vivo Anticancer Drug Screen. Data for tumor model B16 Melanoma (intraperitoneal) in B6D2F1 (BDF1) mice. To be noted: endpoint: median survival time, higher = longer survival. In outline: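 Read-out: survival or tumor size, given as treated/control ratio. Controls received vehicle only; animals bore transplantable tumors.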

[1] abbreviates: dose: 3.12 mg/kg/injection, schedule: Q01DX009 (ip), vehicle: Klucel (hydroxypropylcellulose) (HPC).
Where [2] appears, read: dose: 25.0 mg/kg/injection, schedule: Q01DX009 (ip), vehicle: saline with Tween-80.
Where [3] appears, read: dose: 50.0 mg/kg/injection, schedule: Q01DX009 (ip), vehicle: saline with Tween-80.
[4] abbreviates: dose: 100.0 mg/kg/injection, schedule: Q01DX009 (ip), vehicle: saline with Tween-80.
The mark [5] stands for this setting: dose: 25.0 mg/kg/injection, schedule: Q01DX009 (ip), vehicle: Klucel (hydroxypropylcellulose) (HPC).
[6] abbreviates: dose: 50.0 mg/kg/injection, schedule: Q01DX009 (ip), vehicle: Klucel (hydroxypropylcellulose) (HPC).
Setting [7] is: dose: 12.5 mg/kg/injection, schedule: Q01DX009 (ip), vehicle: Klucel (hydroxypropylcellulose) (HPC).
Where [8] appears, read: dose: 100.0 mg/kg/injection, schedule: Q01DX009 (ip), vehicle: Klucel (hydroxypropylcellulose) (HPC).
[9] abbreviates: dose: 200.0 mg/kg/injection, schedule: Q01DX009 (ip), vehicle: Klucel (hydroxypropylcellulose) (HPC).
Where [10] appears, read: dose: 6.25 mg/kg/injection, schedule: Q01DX009 (ip), vehicle: saline.
[11] abbreviates: dose: 12.5 mg/kg/injection, schedule: Q01DX009 (ip), vehicle: saline.
[12] abbreviates: dose: 25.0 mg/kg/injection, schedule: Q01DX009 (ip), vehicle: saline.
Where [13] appears, read: dose: 6.25 mg/kg/injection, schedule: Q01DX009 (ip), vehicle: Klucel (hydroxypropylcellulose) (HPC).
[14] abbreviates: dose: 100.0 mg/kg/injection, schedule: Q04DX003 (ip), vehicle: Klucel (hydroxypropylcellulose) (HPC).
Setting [15] is: dose: 200.0 mg/kg/injection, schedule: Q04DX003 (ip), vehicle: Klucel (hydroxypropylcellulose) (HPC).
[16] abbreviates: dose: 400.0 mg/kg/injection, schedule: Q04DX003 (ip), vehicle: Klucel (hydroxypropylcellulose) (HPC).
Where [17] appears, read: dose: 200.0 mg/kg/injection, schedule: Q01DX009 (ip), vehicle: saline with Tween-80.
Setting [18] is: dose: 100.0 mg/kg/injection, schedule: Q01DX009 (ip), vehicle: saline.
The mark [19] stands for this setting: dose: 200.0 mg/kg/injection, schedule: Q01DX009 (ip), vehicle: saline.
Where [20] appears, read: dose: 400.0 mg/kg/injection, schedule: Q01DX009 (ip), vehicle: Klucel (hydroxypropylcellulose) (HPC).
Where [21] appears, read: dose: 400.0 mg/kg/injection, schedule: Q01DX009 (ip), vehicle: saline.

Several values for one entry are separate records, joined by “and”; a condition that tells them apart may be missing. Equal values may be shown once. Toxic doses and inconclusive results are not listed.

Consider `COc1ccc2c(c1OC)C13CCCCC1C(C2)[N+](C)(C)CC3` (stereo not given), for which the T/C runs as follows: (dose: 0.02 mg/kg/injection, schedule: Q01DX009 (ip), vehicle: Klucel (hydroxypropylcellulose) (HPC)) 91 % of control; (dose: 0.04 mg/kg/injection, schedule: Q01DX009 (ip), vehicle: Klucel (hydroxypropylcellulose) (HPC)) 89 % of control; (dose: 0.78 mg/kg/injection, schedule: Q01DX009 (ip), vehicle: Klucel (hydroxypropylcellulose) (HPC)) 87 % of control; under setting [1], 86 % of control.

Take `O=c1[nH]c2cc(Cl)ccc2c(CCl)c1Cl`: the T/C by setting is: under setting [2], 88 % of control and 95 % of control; under setting [3], 88 % of control and 95 % of control; under setting [4], 93 % of control and 100 % of control.

Consider `C1CC[N-]CC1.CC(=N\O)/C(C)=N/O.CC(=N\O)/C(C)=N/O.C[CH-]CC.[Co+2]`, for which the T/C is, setting by setting: under setting [5], 102 % of control; under setting [6], 108 % of control.

For `Clc1ccc2c(Cl)ncnc2c1`, the T/C is 100 % of control under setting [7]; 100 % of control under setting [5]; 102 % of control under setting [6]; 100 % of control under setting [8]; 90 % of control under setting [9].

On to `F`, for which the T/C is 105 % of control under setting [10]; 107 % of control under setting [11]; 113 % of control (dose: 12.5 mg/kg/injection, schedule: Q04DX003 (ip), vehicle: saline); 92 % of control under setting [12]; 100 % of control and 124 % of control (dose: 25.0 mg/kg/injection, schedule: Q04DX003 (ip), vehicle: saline); 94 % of control (dose: 50.0 mg/kg/injection, schedule: Q04DX003 (ip), vehicle: saline).

As for `CCCCCc1cc(/C=C2/N=C(c3ccc[nH]3)C=C2OC)[nH]c1C`, the T/C was 98 % of control (dose: 0.25 mg/kg/injection, schedule: Q01DX009 (ip), vehicle: saline with Tween-80); 100 % of control (dose: 0.5 mg/kg/injection, schedule: Q01DX009 (ip), vehicle: saline with Tween-80); 102 % of control (dose: 1.0 mg/kg/injection, schedule: Q01DX009 (ip), vehicle: saline with Tween-80); 107 % of control (dose: 2.0 mg/kg/injection, schedule: Q01DX009 (ip), vehicle: saline with Tween-80); 110 % of control (dose: 4.0 mg/kg/injection, schedule: Q01DX009 (ip), vehicle: saline with Tween-80).

As for `COc1cc2c(c(OC)c1OC)-c1ccc(SCc3ccccc3)c(=O)cc1[C@@H](NC(C)=O)CC2`, the T/C by setting is: (dose: 1.56 mg/kg/injection, schedule: Q01DX009 (ip), vehicle: Klucel (hydroxypropylcellulose) (HPC)) 91 % of control and 111 % of control; under setting [1], 102 % of control and 107 % of control; under setting [13], 101 % of control and 106 % of control; under setting [7], 109 % of control and 111 % of control; under setting [5], 113 % of control.

For `C=C(Cl)CC1(C(=O)OCC)CCN(S(=O)(=O)c2ccc(C)cc2)c2ccccc2C1=O` (stereo not given), the T/C is 97 % of control under setting [14], 107 % of control under setting [15] and 93 % of control under setting [16].

As to `Cc1cc2no[n+]([O-])c2cc1C`, the T/C by setting is: under setting [6], 116 % of control; under setting [8], 99 % of control; under setting [9], 117 % of control.

Consider `Cc1c(Cl)cccc1NC(=O)c1ccc([N+](=O)[O-])cc1`, for which the T/C reads like this: under setting [4], 105 % of control; under setting [17], 100 % of control.

`CCCCNC(C)(C)C(SSSC(c1cccs1)C(C)(C)NCCCC)c1cccs1` (stereo not given): the T/C is 96 % of control (dose: 12.5 mg/kg/injection, schedule: Q01DX009 (ip), vehicle: saline with Tween-80) and 86 % of control under setting [2].

In the case of `C1CCNCC1`, the T/C under setting [12] is 100 % of control; the T/C (dose: 50.0 mg/kg/injection, schedule: Q01DX009 (ip), vehicle: saline) is 102 % of control; the T/C under setting [18] was 107 % of control; the T/C under setting [19] is 102 % of control.

In the case of `CC[CH2][Pb]([Cl])([CH2]CC)[CH2]CC`, the T/C was 100 % of control (dose: 0.09 mg/kg/injection, schedule: Q01DX009 (ip), vehicle: DMSO); 92 % of control (dose: 0.18 mg/kg/injection, schedule: Q01DX009 (ip), vehicle: DMSO); 95 % of control (dose: 0.37 mg/kg/injection, schedule: Q01DX009 (ip), vehicle: DMSO); 95 % of control (dose: 0.75 mg/kg/injection, schedule: Q01DX009 (ip), vehicle: DMSO); 92 % of control (dose: 1.5 mg/kg/injection, schedule: Q01DX009 (ip), vehicle: DMSO).

Take `CCOc1ccc(NC(=O)COc2ccc(Cl)cc2)cc1`: the T/C under setting [8] is 103 % of control, the T/C under setting [9] is 109 % of control and the T/C under setting [20] was 93 % of control.

`C1=C(c2ccccc2)CCCC1`: the T/C is, setting by setting: under setting [14], 90 % of control; under setting [15], 93 % of control; under setting [16], 103 % of control.

As to `CC(C)=CN1CCOCC1`, the T/C is 94 % of control under setting [5], 100 % of control under setting [6] and 94 % of control under setting [8].

As to `O=C(Oc1ccc(OC(=O)c2ccccc2)c2c1C(=O)C(CBr)=C(CBr)C2=O)c1ccccc1`, the T/C was 97 % of control under setting [13], 100 % of control under setting [7], 97 % of control under setting [5] and 101 % of control under setting [6].

On to `CC(C)CC(N)C(=O)OCc1ccccc1` (stereo not given), for which the T/C is, setting by setting: (dose: 100.0 mg/kg/injection, schedule: Q04DX003 (ip), vehicle: saline) 109 % of control; under setting [19], 93 % of control; (dose: 200.0 mg/kg/injection, schedule: Q04DX003 (ip), vehicle: saline) 104 % of control; under setting [21], 91 % of control; (dose: 400.0 mg/kg/injection, schedule: Q04DX003 (ip), vehicle: saline) 100 % of control.

As to `O=C(O)CSCCc1ccccc1`, the T/C was 96 % of control under setting [8], 93 % of control under setting [9] and 100 % of control under setting [20].

On to `CCOC(CNC(=O)CC(C)=O)OCC`, for which the T/C is 110 % of control under setting [18], 118 % of control under setting [19] and 106 % of control under setting [21].

For the molecule `CC(=O)NCc1cc(CNC(C)=O)c(C)cc1C`, the T/C runs as follows: under setting [4], 88 % of control; under setting [17], 86 % of control.

As to `O=C(O)C(O)C(=O)O.[NH-]C1CCCCC1[NH-].[Pt+2]`, the T/C (dose: 20.0 mg/kg/injection, schedule: Q01DX009 (ip), vehicle: other) is 161 % of control and the T/C (dose: 40.0 mg/kg/injection, schedule: Q01DX009 (ip), vehicle: other) is 150 % of control.

As for `CC1=NN(c2ccccc2)C(=O)C1N=Nc1ccccc1S(=O)(=O)O` (stereo not given), the T/C under setting [3] was 90 % of control.

For `[Cl][Pt+2][Br].[NH-]CC[NH-]`, the T/C by setting is: (dose: 0.47 mg/kg/injection, schedule: Q04DX003 (ip), vehicle: saline with Tween-80) 110 % of control; (dose: 0.5 mg/kg/injection, schedule: Q01DX009 (ip), vehicle: saline) 110 % of control; (dose: 0.95 mg/kg/injection, schedule: Q04DX003 (ip), vehicle: saline with Tween-80) 118 % of control; (dose: 1.0 mg/kg/injection, schedule: Q01DX009 (ip), vehicle: saline) 110 % of control; (dose: 1.9 mg/kg/injection, schedule: Q04DX003 (ip), vehicle: saline with Tween-80) 105 % of control; (dose: 2.0 mg/kg/injection, schedule: Q01DX009 (ip), vehicle: saline) 110 % of control.

Consider `CC(=O)C1CCC2C3CCC4=CC(=O)CC4(C)C3CCC12C` (stereo not given), for which the T/C was 94 % of control (dose: 100.0 mg/kg/injection, schedule: Q04DX003 (ip), vehicle: saline with Tween-80) and 105 % of control (dose: 200.0 mg/kg/injection, schedule: Q04DX003 (ip), vehicle: saline with Tween-80).

Take `C1CNC2NCCNC2N1` (stereo not given): the T/C by setting is: under setting [10], 114 % of control; under setting [11], 120 % of control; under setting [12], 105 % of control; under setting [18], 109 % of control.
